Experiments:
[1] = Iodine stain removal, trial and error testing / actual usage
From the text: In use, the desired level of concentration may be intentionally varied to correspond to anticipated situations. For instance, products that are directed towards general cleanup, such as flooring, or equipment, or linens, may be made at the higher ranges so as to ensure quick and complete neutralization of the Iodine. The higher concentrations serve also to overcome any associated soil or other materials that may impede the action of the sodium metabisulfite on the Iodine stains.

[2] = use of the metabisulfite solution directly on human and animal patients (tolerability); format: in vivo; details: 0.020 to 0.035 percent by weight in water, on skin
From the text: Additionally, the same solution is effective for removing stains elsewhere. The solutions of the present embodiments may be packaged for liquid application, such as in bottles, or sprays, or swabs.

[3] = cosmetic remover solution with parabens; cited from earlier work

Compound | effectiveness in eliminating Iodine staining ([1]; 0.020 to 0.035 percent by weight in water) | deleterious effects or irritation to the patient [2] | irritation or other adverse reactions in and about the eyes of users [3] | effectiveness of Iodine stain removal compared to modest aqueous solutions of sodium metabisulfite ([1]; sodium thiosulfate in an alkaline detergent type matrix, actual usage)
O=S([O-])S(=O)(=O)[O-].[Na+].[Na+] [sodium metabisulfite] | highly effective | does not show any deleterious effects or irritation | did not contribute to any irritation or other adverse reactions | –
O=S([O-])([O-])=S.[Na+].[Na+] [sodium thiosulfate, reference compound] | – | – | – | weak
